Test results as given in ChEMBL document CHEMBL1201862, “PubChem BioAssay data set” (2004).
The source made the active and inactive calls.

Assays:
[1] = molecular target: T1, Tyrosine-protein phosphatase non-receptor type 12 (Homo sapiens, UniProt Q05209); assay: SAR Selectivity Analysis of small molecule inhibitors of PEST using pCAP in a fluorescence assay. [Related pubchem assays (depositor defined):AID1779, AID1784, AID2135]; assay type: functional
T1 sequence (Q05209 whole entry): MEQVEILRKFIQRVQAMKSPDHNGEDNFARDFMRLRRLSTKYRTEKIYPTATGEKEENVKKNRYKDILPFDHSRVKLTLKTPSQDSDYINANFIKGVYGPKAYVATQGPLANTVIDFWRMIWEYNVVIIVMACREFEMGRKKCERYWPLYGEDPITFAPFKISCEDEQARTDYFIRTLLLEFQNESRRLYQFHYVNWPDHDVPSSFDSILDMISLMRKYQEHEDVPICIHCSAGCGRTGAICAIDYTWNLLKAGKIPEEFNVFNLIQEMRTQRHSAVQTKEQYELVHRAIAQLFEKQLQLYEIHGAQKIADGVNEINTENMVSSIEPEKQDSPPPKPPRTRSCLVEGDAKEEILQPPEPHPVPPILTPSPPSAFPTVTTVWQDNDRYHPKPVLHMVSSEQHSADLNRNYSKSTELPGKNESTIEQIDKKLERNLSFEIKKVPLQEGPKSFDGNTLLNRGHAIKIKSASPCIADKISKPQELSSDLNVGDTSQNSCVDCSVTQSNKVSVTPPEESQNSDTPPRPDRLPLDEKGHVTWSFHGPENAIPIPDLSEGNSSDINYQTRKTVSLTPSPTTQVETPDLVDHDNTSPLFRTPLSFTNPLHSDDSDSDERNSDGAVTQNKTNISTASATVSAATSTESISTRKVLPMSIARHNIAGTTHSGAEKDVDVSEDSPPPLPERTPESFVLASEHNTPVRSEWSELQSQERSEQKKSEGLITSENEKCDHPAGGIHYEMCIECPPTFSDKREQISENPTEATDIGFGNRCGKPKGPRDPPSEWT

[2] = molecular target: T2, Tyrosine-protein phosphatase non-receptor type 22 (Homo sapiens, UniProt Q9Y2R2); assay: SAR LYP1 Fluorescent Assay using OMFP substrate for In Vitro dose response studies - Set 3. [Related pubchem assays (depositor defined):AID1779, AID1784, AID2140, AID2686]; assay type: functional
T2 sequence (Q9Y2R2 whole entry): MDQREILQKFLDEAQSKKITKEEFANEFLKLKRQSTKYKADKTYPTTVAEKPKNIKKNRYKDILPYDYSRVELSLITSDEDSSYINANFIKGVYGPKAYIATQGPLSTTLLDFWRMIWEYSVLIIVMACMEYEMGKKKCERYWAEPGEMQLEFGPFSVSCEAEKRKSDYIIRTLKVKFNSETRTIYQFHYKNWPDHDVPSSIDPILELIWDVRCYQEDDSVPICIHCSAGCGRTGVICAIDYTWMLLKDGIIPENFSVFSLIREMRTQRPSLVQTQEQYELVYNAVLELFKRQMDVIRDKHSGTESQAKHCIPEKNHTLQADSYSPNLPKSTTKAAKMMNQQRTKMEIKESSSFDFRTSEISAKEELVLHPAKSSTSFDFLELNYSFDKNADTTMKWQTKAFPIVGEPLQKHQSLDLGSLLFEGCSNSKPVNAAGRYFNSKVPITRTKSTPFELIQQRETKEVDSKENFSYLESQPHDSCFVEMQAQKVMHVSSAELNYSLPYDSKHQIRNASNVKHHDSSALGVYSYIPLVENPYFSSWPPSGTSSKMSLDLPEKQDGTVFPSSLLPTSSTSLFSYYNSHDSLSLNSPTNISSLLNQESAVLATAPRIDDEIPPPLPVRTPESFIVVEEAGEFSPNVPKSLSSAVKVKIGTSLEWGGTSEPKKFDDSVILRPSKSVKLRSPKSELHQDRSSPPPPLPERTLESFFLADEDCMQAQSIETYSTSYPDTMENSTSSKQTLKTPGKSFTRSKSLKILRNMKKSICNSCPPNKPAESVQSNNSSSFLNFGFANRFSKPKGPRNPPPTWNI

[3] = molecular target: T3, Tyrosine-protein phosphatase non-receptor type 7 (Homo sapiens, UniProt P35236); assay: redox-active compounds inhibiting HePTP phosphatase – biochemical, fluorescence, mechanism study (AID 2068); assay type: functional
T3 sequence (P35236 whole entry): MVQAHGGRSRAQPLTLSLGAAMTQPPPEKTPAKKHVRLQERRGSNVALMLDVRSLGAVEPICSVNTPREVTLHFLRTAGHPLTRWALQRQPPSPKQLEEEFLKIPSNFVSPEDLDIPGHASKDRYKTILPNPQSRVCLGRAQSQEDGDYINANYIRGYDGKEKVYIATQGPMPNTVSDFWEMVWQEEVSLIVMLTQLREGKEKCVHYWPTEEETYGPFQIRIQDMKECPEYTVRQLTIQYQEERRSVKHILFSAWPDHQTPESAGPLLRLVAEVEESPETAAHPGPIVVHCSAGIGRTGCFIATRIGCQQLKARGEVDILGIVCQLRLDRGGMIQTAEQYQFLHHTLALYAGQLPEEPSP

[4] = molecular target: T2, Tyrosine-protein phosphatase non-receptor type 22; assay: inhibition of lymphoid tyrosine phosphatase LYP – biochemical, pCAP fluorogenic substrate, fluorescence, set 3, SAR follow-up (AID 449727); assay type: functional
[5] = molecular target: Dual specificity protein phosphatase 3 (Homo sapiens, UniProt P51452); assay: SAR VHR1 Fluorescent Assay for In Vitro dose response studies Set 2. [Related pubchem assays (depositor defined):AID1654, AID1661, AID1878]; assay type: functional
[6] = molecular target: T4, Dual specificity protein phosphatase 6 (Rattus norvegicus, UniProt Q64346); assay type: functional;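 further: confirmatory in vitro dose-response testing of MKP-3 inhibition; recombinant His-tagged MKP-3 made in E. coli BL21 with OMFP substrate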
T4 sequence (Q64346 whole entry): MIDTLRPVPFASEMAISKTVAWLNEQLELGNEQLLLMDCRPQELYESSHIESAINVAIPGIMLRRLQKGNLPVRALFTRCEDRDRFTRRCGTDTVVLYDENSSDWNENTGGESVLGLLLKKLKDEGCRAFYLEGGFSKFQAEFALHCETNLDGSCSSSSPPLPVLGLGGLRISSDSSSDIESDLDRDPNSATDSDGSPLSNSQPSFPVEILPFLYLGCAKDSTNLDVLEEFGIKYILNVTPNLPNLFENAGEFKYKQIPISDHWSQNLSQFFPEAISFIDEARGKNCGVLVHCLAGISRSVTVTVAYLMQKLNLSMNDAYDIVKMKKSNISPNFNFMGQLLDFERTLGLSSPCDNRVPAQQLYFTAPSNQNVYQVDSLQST

[7] = molecular target: T5, Short transient receptor potential channel 4 (Mus musculus, UniProt Q9QUQ5); assay: potentiation of DAMGO-evoked TRPC4 calcium signal – cell-based, HEK293 TRPC4/mu-opioid, Fluo-4 calcium, EC20 DAMGO, dose response (AID 434941); assay type: functional
T5 sequence (Q9QUQ5 whole entry): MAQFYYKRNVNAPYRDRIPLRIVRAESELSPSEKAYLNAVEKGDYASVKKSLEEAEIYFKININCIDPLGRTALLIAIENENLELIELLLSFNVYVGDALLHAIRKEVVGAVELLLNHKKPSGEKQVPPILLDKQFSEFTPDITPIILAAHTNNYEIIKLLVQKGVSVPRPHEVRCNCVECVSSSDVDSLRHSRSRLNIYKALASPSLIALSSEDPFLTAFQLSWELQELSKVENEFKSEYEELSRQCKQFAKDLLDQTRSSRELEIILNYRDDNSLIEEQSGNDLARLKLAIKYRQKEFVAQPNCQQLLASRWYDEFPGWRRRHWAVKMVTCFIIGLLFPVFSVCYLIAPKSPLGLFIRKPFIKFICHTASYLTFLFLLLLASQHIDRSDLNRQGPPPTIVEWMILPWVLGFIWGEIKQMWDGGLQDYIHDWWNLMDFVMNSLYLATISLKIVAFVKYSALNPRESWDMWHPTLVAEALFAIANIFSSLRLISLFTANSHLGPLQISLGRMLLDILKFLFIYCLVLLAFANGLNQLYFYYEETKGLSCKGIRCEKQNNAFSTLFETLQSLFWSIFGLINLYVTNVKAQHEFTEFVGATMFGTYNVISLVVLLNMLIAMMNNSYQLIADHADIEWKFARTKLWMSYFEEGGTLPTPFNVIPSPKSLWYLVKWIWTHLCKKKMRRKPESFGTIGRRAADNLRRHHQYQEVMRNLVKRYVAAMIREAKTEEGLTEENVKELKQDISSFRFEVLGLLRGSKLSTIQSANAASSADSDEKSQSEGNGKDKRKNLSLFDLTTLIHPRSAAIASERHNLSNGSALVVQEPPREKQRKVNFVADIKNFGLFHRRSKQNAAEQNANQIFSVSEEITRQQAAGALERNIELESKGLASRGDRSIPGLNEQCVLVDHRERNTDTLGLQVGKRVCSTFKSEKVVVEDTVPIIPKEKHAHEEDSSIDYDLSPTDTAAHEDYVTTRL

[8] = test system: Streptococcus sp. 'group A'; assay: Streptococcus pyogenes SK(-)GAS viability under kanamycin – luminescence, BacTiterGlo, confirmation, counter-screen for streptokinase expression inhibitor project, dose response (AID 1900); assay type: functional, organism-based
NS3 = NS3 (Hepatitis C virus, UniProt A3EZJ3); assay: PubChem AID 2173; parameters: species or system Hepacivirus hominis
Streptococcus = assay: GAS UMAA2166 growth inhibition – luminescence, BacTiterGlo, counter-screen for streptokinase expression inhibitor project, dose response (AID 1915); assay type: functional, organism-based;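 further: potency for reduction of bacterial viability or growth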
Caspase-3 = molecular target: T6, Caspase-3 (Homo sapiens, UniProt P42574); assay: activation of caspase-3 zymogen – biochemical, absorbance, dose response (AID 489014)
T6 sequence (P42574 whole entry): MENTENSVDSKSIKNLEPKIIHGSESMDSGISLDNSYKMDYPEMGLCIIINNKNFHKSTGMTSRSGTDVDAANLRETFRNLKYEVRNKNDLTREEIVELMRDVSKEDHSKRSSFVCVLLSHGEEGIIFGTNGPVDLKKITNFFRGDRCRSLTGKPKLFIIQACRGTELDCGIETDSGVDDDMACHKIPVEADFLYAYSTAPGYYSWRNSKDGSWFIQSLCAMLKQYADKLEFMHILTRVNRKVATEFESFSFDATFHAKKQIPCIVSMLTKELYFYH

Caspase-7 = Caspase-7 (Homo sapiens, UniProt P55210); assay: activation of caspase-7 zymogen – biochemical, absorbance, counter-screen for procaspase-3 activator project, dose response (AID 489013)
INS1 = assay: INS-1E survival protection against cytokine death – cell-based, luminescence, retest, dose response (AID 449756); assay type: functional; details: Rattus norvegicus, INS1;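 further: cell death triggered by IL-1 beta plus TNF-alpha plus IFN-gamma mixture; protective hits raise ATP signal compared with cytokine alone wells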
Albumin = Albumin (Bos taurus, UniProt P02769); assay: Counterscreen for inhibitors of T-cell receptor (TCR)-CD3 interaction: Fluorescence-based biochemical high throughput dose response assay to identify inhibitors of T-cell receptor (TCR)-CD3 interaction using a TAMRA-labeled BSA probe.; assay type: functional
Mu-type opioid receptor = Mu-type opioid receptor (Homo sapiens, UniProt P35372); assay: SAR Analysis of Antagonists of the MOR Receptor using an Image-Based Assay - Set 3. [Related pubchem assays (depositor defined):AID1777, AID1785, AID1786, AID1966, AID2133, AID2136, AID2284, AID2285, AID2420]; assay type: functional
[9] = molecular target: T7, Kappa-type opioid receptor (Homo sapiens, UniProt P41145); assay: SAR analysis of small molecule antagonists of the kappa opioid receptor via a luminescent beta-arrestin assay - Set 6. [Related pubchem assays (depositor defined):AID1777, AID1778, AID1785, AID1786, AID1966, AID2133, AID2136, AID2285]; assay type: functional
[10] = molecular target: T7, Kappa-type opioid receptor; assay: SAR analysis of small molecule antagonists of the kappa opioid receptor via a luminescent beta-arrestin assay - Set 4. [Related pubchem assays (depositor defined):AID1777, AID1778, AID1785, AID1786, AID1966, AID2133, AID2136, AID2285]; assay type: functional
[11] = molecular target: Delta-type opioid receptor (Homo sapiens, UniProt P41143); assay: SAR Analysis of Antagonists of the DOR Receptor using an Image-Based Assay - Set 3. [Related pubchem assays (depositor defined):AID1777, AID1785]; assay type: functional;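 further: U2OS cells expressing DOR1 and beta-arrestin GFP stimulated with 100 nM SNC80; imaging of GFP-tagged beta-arrestin moving into spots after receptor activation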
[12] = molecular target: T7, Kappa-type opioid receptor; assay: SAR analysis of Antagonists of the Kappa Opioid Receptor (KOR) using an Image-Based Assay - Set 4. [Related pubchem assays (depositor defined):AID1777, AID1785]; assay type: functional
[13] = NIH/3T3 cell viability loss – mouse embryonic fibroblasts, dry powder, set 2, cytotoxicity control, dose response (AID 493247); assay type: functional, cell-based; details: Fibroblast

T7 sequence (P41145 whole entry): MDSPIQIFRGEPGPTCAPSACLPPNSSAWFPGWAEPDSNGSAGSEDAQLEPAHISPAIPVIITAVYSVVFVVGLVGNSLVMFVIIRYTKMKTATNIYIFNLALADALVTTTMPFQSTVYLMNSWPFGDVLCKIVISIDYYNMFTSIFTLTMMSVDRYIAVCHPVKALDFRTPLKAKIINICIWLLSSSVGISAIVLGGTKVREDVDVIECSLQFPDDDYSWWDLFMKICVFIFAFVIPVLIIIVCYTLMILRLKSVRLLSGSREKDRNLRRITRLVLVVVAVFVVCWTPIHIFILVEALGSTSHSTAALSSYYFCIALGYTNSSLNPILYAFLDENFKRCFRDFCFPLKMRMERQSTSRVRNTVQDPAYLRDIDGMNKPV
Mu-type opioid receptor, sequence (P35372 whole entry): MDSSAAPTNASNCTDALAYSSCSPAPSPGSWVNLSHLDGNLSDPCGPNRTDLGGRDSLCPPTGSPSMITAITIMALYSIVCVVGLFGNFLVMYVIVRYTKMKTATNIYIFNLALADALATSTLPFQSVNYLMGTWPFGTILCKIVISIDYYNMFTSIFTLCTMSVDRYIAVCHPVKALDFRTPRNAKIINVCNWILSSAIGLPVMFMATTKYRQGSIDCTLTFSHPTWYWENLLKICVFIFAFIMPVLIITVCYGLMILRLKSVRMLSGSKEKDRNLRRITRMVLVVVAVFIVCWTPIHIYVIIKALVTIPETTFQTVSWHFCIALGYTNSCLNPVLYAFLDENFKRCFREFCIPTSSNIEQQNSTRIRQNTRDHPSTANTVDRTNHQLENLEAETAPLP
Caspase-7, sequence (P55210 24-198 limits assumed): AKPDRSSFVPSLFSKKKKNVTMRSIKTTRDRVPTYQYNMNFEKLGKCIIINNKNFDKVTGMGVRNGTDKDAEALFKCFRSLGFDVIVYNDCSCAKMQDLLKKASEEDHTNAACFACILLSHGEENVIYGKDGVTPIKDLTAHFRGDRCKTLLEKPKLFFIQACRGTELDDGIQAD
Caspase-7, sequence (P55210 207-303 limits assumed): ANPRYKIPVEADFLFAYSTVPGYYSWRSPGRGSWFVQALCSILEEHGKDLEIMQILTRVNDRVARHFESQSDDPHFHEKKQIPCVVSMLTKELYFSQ
NS3, sequence (A3EZJ3 whole entry): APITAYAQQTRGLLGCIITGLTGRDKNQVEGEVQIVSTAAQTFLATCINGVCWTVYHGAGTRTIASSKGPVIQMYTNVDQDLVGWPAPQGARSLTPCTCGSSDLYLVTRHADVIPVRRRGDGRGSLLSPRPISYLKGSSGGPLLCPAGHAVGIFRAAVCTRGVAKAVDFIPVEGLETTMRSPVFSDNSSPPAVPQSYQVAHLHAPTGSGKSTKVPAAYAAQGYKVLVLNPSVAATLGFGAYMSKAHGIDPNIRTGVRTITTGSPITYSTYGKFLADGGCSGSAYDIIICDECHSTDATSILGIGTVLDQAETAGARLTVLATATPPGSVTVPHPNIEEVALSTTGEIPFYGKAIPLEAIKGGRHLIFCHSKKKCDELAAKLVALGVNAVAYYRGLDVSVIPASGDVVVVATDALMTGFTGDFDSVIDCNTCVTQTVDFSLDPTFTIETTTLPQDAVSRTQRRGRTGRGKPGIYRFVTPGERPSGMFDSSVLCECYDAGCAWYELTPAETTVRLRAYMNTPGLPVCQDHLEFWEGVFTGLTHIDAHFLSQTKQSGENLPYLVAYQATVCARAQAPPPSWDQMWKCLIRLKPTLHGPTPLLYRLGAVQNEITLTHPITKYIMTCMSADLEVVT
Albumin, sequence (P02769 whole entry): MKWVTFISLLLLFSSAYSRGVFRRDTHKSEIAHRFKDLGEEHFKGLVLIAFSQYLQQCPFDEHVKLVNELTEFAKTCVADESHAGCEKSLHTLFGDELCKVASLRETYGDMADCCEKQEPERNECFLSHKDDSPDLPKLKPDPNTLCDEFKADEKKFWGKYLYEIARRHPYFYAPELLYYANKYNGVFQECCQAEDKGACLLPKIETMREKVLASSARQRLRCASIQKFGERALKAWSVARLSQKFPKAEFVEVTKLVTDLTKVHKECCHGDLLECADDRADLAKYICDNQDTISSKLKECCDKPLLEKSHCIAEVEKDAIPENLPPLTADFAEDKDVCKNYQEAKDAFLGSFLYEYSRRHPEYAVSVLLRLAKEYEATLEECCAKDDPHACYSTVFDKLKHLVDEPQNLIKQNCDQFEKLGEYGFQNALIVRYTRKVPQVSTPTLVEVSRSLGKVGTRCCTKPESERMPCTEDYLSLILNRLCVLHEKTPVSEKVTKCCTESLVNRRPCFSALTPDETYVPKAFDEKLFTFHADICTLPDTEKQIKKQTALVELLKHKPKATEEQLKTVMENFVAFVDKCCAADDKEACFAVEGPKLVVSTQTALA
Delta-type opioid receptor, sequence (P41143 whole entry): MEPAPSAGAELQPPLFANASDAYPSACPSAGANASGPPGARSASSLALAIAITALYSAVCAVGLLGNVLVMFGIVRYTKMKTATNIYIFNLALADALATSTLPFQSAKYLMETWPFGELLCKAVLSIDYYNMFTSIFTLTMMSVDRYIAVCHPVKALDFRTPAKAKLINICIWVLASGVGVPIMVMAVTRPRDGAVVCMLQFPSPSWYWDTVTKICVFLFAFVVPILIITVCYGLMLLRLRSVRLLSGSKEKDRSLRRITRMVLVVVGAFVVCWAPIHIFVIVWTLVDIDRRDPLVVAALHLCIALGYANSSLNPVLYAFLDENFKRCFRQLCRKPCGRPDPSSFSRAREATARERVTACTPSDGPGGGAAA
Dual specificity protein phosphatase 3, sequence (P51452 whole entry): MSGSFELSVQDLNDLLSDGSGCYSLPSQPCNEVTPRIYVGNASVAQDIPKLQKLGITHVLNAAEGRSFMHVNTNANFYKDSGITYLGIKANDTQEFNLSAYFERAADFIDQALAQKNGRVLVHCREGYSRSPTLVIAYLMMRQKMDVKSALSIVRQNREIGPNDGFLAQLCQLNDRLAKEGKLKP

COc1cc(/C=C2\SC(=O)N(CC(=O)Nc3cccc(C)c3)C2=O)cc(Cl)c1OCC(=O)O
IC50 [1]: 2.2 µM (active)
IC50 [2]: 4.96 µM (active)
IC50 [3]: 3.63 µM (active)
IC50 [4]: 3.69 µM (active)
IC50 [5]: 17.9 µM (active)
IC50 [6]: > 100 µM (inactive)

COC(=O)[C@@]12CCCCN1[C@H](c1ccc(-c3cccc(Cl)c3)c(OC)c1)[C@H]1C(=O)N(C)C(=O)[C@H]12
EC50 [7]: 2.11 µM (active)

Oc1c(Br)cc(Br)cc1/C=N/NC(=S)N[C@H]1CC2C=CC1C2 (stereo not given in full)
EC50 [8]: 0.109 µM (active)
IC50 (NS3): 7.8 µM (active)
EC50 (Streptococcus): 0.448 µM (active)
EC50 (Caspase-3): > 9.47 µM (active)
EC50 (Caspase-7): > 85.3 µM (inactive)
AC50 (INS1): 2 µM (active)
IC50 (Albumin): > 94.1 µM (inactive)

Cc1ccc(S(=O)(=O)N2CCc3cc(C(=O)NCCN(Cc4ccccc4)C(C)C)ccc3C2)cc1
IC50 (Mu-type opioid receptor): 15.1 µM (inactive)
IC50 [9]: 0.0675 µM (active)
IC50 [10]: 0.0467 µM (active)
IC50 [11]: > 32 µM (inactive)
IC50 [12]: < 0.0031 µM (active)

CN(Cc1ccccc1)C(=O)C1CCCN(Cc2ccc(C(F)(F)F)cc2)C1 (stereo not given)
AC50 [13]: 61.6 µM (active)
